Data taken from the NIST ThermoML archive (doi:10.1021/je034102r).
Numbers after ± are expanded uncertainties.

Test: molar heat capacity at constant pressure
Details: 101.33 kPa, Liquid, heat bridge-scanning calorimeter

CCCCn1cc[n+](C)c1.F[P-](F)(F)(F)(F)F [1-butyl-3-methylimidazolium hexafluorophosphate]
Details	molar heat capacity at constant pressure [J/K/mol]
495.63 K	502.43 ± 9.9
495.77 K	502.43 ± 9.9
495.91 K	502.43 ± 9.9
496.05 K	502.72 ± 9.9
496.18 K	503.86 ± 9.9
496.32 K	504.14 ± 9.9
496.46 K	504.14 ± 9.9
496.6 K	503.29 ± 9.9
496.9 K	505.56 ± 10
497.04 K	506.13 ± 10
497.17 K	506.13 ± 10
497.31 K	504.99 ± 10
497.45 K	504.42 ± 10
497.58 K	504.14 ± 9.9
497.72 K	503.57 ± 9.9
497.86 K	503.57 ± 9.9
498 K	503.57 ± 9.9
498.13 K	503.29 ± 9.9
498.27 K	503.86 ± 9.9
498.57 K	504.71 ± 10
498.7 K	504.42 ± 10
498.84 K	505.84 ± 10
498.98 K	507.27 ± 10
499.11 K	506.98 ± 10
499.25 K	505.84 ± 10
499.39 K	504.99 ± 10
499.52 K	504.71 ± 10
499.66 K	504.42 ± 10
499.96 K	504.14 ± 9.9
500.1 K	504.42 ± 10
500.24 K	504.42 ± 10
500.37 K	504.42 ± 10
500.51 K	504.71 ± 10
500.65 K	505.56 ± 10
500.79 K	506.13 ± 10
500.92 K	506.41 ± 10
501.06 K	506.13 ± 10
501.2 K	506.41 ± 10
501.34 K	506.7 ± 10
501.63 K	505.84 ± 10
501.78 K	506.98 ± 10
501.92 K	507.55 ± 10
502.06 K	506.41 ± 10
502.19 K	505.84 ± 10
502.33 K	505.56 ± 10
502.47 K	505.28 ± 10
502.61 K	504.99 ± 10
502.74 K	505.28 ± 10
503.05 K	505.28 ± 10
503.18 K	504.99 ± 10
503.32 K	505.28 ± 10
503.46 K	505.28 ± 10
503.59 K	505.28 ± 10
503.73 K	505.84 ± 10
503.87 K	505.84 ± 10
504.01 K	505.84 ± 10
504.14 K	506.13 ± 10
504.28 K	507.55 ± 10
504.42 K	505.84 ± 10
504.71 K	505.84 ± 10
504.85 K	505.84 ± 10
504.99 K	506.13 ± 10
505.13 K	506.41 ± 10
505.26 K	506.7 ± 10
505.4 K	506.41 ± 10
505.54 K	506.98 ± 10
505.68 K	506.98 ± 10
505.81 K	505.84 ± 10
506.11 K	505.84 ± 10
506.25 K	506.13 ± 10
506.39 K	507.83 ± 10
506.53 K	507.27 ± 10
506.66 K	506.98 ± 10
506.8 K	506.98 ± 10
506.94 K	506.41 ± 10
507.08 K	506.13 ± 10
507.21 K	506.13 ± 10
507.35 K	506.7 ± 10
507.49 K	506.98 ± 10
507.78 K	507.27 ± 10
507.92 K	508.12 ± 10
508.06 K	508.12 ± 10
508.21 K	508.12 ± 10
508.35 K	507.27 ± 10
508.48 K	506.98 ± 10
508.62 K	506.98 ± 10
508.76 K	506.98 ± 10
508.9 K	507.27 ± 10
509.2 K	506.7 ± 10
509.33 K	506.98 ± 10
509.47 K	507.83 ± 10
509.61 K	508.69 ± 10
509.75 K	509.25 ± 10
509.88 K	509.25 ± 10
510.02 K	507.55 ± 10
510.16 K	506.7 ± 10
510.29 K	506.13 ± 10
510.43 K	506.7 ± 10
510.57 K	507.55 ± 10
510.86 K	507.83 ± 10
511 K	507.27 ± 10
511.14 K	506.7 ± 10
511.28 K	506.41 ± 10
511.41 K	505.84 ± 10
511.55 K	506.41 ± 10
511.69 K	507.27 ± 10
511.83 K	506.98 ± 10
511.96 K	506.41 ± 10
512.26 K	506.7 ± 10
512.4 K	507.27 ± 10
512.54 K	507.55 ± 10
512.68 K	507.55 ± 10
512.81 K	507.55 ± 10
512.95 K	506.98 ± 10
513.09 K	506.7 ± 10
513.23 K	506.98 ± 10
513.36 K	506.98 ± 10
513.5 K	506.7 ± 10
513.64 K	506.41 ± 10
513.93 K	506.13 ± 10
514.07 K	506.13 ± 10
514.21 K	506.13 ± 10
514.35 K	506.41 ± 10
514.48 K	507.27 ± 10
514.62 K	507.83 ± 10
514.77 K	507.83 ± 10
514.91 K	507.27 ± 10
515.05 K	506.98 ± 10
515.35 K	507.55 ± 10
515.49 K	507.55 ± 10
515.62 K	506.98 ± 10
515.76 K	506.98 ± 10
515.9 K	506.98 ± 10
516.04 K	507.27 ± 10
516.18 K	507.27 ± 10
516.31 K	506.98 ± 10
516.45 K	506.98 ± 10
516.59 K	506.98 ± 10
516.73 K	506.7 ± 10
517.03 K	507.27 ± 10
517.16 K	506.98 ± 10
517.3 K	507.27 ± 10
517.44 K	506.98 ± 10
517.58 K	506.98 ± 10
517.71 K	507.27 ± 10
517.85 K	506.98 ± 10
517.99 K	506.98 ± 10
518.13 K	507.27 ± 10
518.43 K	508.97 ± 10
518.57 K	508.12 ± 10
518.71 K	507.83 ± 10
518.85 K	507.55 ± 10
518.98 K	507.83 ± 10
519.12 K	508.12 ± 10
519.26 K	508.4 ± 10
519.4 K	508.4 ± 10
519.53 K	508.4 ± 10
519.67 K	508.12 ± 10
519.81 K	508.12 ± 10
520.11 K	508.12 ± 10
520.24 K	508.4 ± 10
520.38 K	508.97 ± 10
520.52 K	508.97 ± 10
520.66 K	509.25 ± 10
520.79 K	509.54 ± 10
520.93 K	509.54 ± 10
521.07 K	509.25 ± 10
521.22 K	508.97 ± 10
521.52 K	509.25 ± 10
521.66 K	509.25 ± 10
521.8 K	509.25 ± 10
521.94 K	509.25 ± 10
522.07 K	509.25 ± 10
522.21 K	509.54 ± 10
522.35 K	509.82 ± 10
522.49 K	510.39 ± 10
522.62 K	510.39 ± 10
522.76 K	510.11 ± 10
522.9 K	510.11 ± 10
523.2 K	510.11 ± 10
523.33 K	509.82 ± 10
523.47 K	509.82 ± 10
523.61 K	509.82 ± 10
523.75 K	509.82 ± 10
523.88 K	510.11 ± 10
524.02 K	510.39 ± 10
524.16 K	510.11 ± 10
524.3 K	509.82 ± 10
524.6 K	509.82 ± 10
524.74 K	510.11 ± 10
524.87 K	510.11 ± 10
